Experimental data as given in patent US20210284647A1, “N-(3-(IMIDAZO[1,2-B]PYRIDAZIN-3-YLETHYNYL)-4-METHYLPHENYL)-5-PHENYL-4,5-DIHYDRO-1H-PYRAZOLE-1-CARBOXAMIDE DERIVATIVE, AND PHARMACEUTICAL COMPOSITION CONTAINING SAME AS ACTIVE INGREDIENT FOR TREATING KINASE-RELATED DISEASES” (VORONOIBIO INC., priority 2018, published 2021).
Counter-ions that a name gives are not always drawn.

Columns and labels:
[1] = test system: human Jurkat T cells deficient in FADD; assay: Cell protection effect under apoptosis-inducing condition (TNF-α); format: cell-based; conditions: 40 ng of TNF-α, 50 hours, CellTiter-Glo, read-out: I2.I Cell EC50
Method: The cell protection effect of the compounds according to the present invention under the condition of inducing apoptosis by TNF-α was confirmed by […]. An apoptosis inducing factor such as TNF-α was treated to induce apoptosis of human Jurkat T cells deficient in FADD, to which the example compound was treated, and the cell protection effect was confirmed through the following analysis. Jurkat T cells deficient in FADD were cultured using RPMI medium (Hyclone) containing 10% FBS. When performing the test, the cells were seeded in a 96-well plate containing a medium suitable for the cell line at the density of 10,000 cells/well, and cultured in a 37° C. 5% CO2 incubator for 24 hours. Then, each well was treated with 40 ng of TNF-α, and the compounds prepared in the above examples were each treated with a 3-fold concentration gradient with 1 μM as the highest concentration. As the solvent control, dimethyl sulfoxide (DMSO) was treated at the concentration of 0.05% (v/v), which was the same concentration as that used for the compound treatment. Then, the cells were cultured for 50 hours. To confirm the degree of viability of the cells, a mixture provided in CellTiter-Gloe Luminescent Cell Viability Assay Kit (Promega) was added to the culture medium of the cells, followed by further culture at 37° C. for 30 minutes. Then, luminescence fluorescence was measured. The degree of inhibition of apoptosis induction according to the treatment concentration of each compound was calculated based on the fluorescence of the solvent control cells not treated with the compound. At this time, the concentration of each compound inhibiting 50% was determined as EC50 (μM). EC50 of each compound was calculated using Prism (version 7.01, GraphPad) software.

[2] = target: T1, human GST-RIPK1 (Homo sapiens, UniProt Q13546); assay: RIPK1 inhibitory activity (ADP-Glo kinase assay); format: biochemical; conditions: human GST-RIPK1 10 ng, ATP 50 uM, 25° C. for 4 hours, read-out: Enzyme IC50
T1 construct: GST; purchased signalchem
T1 sequence (Q13546 1-375 limits assumed): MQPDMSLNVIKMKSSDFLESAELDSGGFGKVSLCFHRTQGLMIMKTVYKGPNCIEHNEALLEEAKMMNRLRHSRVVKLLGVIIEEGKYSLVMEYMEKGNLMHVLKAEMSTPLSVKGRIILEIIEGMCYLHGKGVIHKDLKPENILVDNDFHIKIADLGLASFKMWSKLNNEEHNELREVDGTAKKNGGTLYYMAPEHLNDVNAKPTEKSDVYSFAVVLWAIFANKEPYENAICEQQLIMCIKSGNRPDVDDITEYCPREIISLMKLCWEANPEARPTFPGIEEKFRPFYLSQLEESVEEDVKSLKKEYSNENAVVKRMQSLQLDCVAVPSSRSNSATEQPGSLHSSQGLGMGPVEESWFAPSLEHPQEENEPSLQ
Method: The following experiment was performed to evaluate the inhibitory activity of the example compounds according to the present invention against RIPK1 (receptor-interacting serine/threonine protein kinase 1).
The example compound was reacted with the purified human GST-RIPK1 (1375, signalchem) enzyme to evaluate the enzyme inhibitory activity in the following manner. The composition of the reaction buffer used herein was as follows: 40 mM Tris-Hcl pH 7.4, 20 mM MgCl2, 0.5 mg/ml, BSA and 0.5 uM DTT. All the test materials were reacted in the reaction buffer. After reacting human GST-RIPK1 (1375, 10 ng), purified ATP (50 uM) and a specific substrate solution at 25° C. for 4 hours, the enzyme activity was confirmed using an in vitro ADP-Glo™ kinase assay (promega). Luminoscence was measured by reacting the enzyme activity reaction solution, ADP-Glo reaction solution, and enzyme activity detection solution at the ratio of 2:2:1. The degree of enzyme activity inhibition according to the treatment concentration of each compound was calculated based on the fluorescence of the enzyme activity of the solvent control not treated with the compound. At this time, the concentration of each compound inhibiting 50% of the enzyme activity was determined as IC50 (nM). IC50 of each compound was determined with three data sets and calculated using Prism (version 7.01, GraphPad) software.

Compound | EC50 [1] [nM] | IC50 [2] [nM]
Cc1ccc(NC(=O)N2N=CCC2c2ccccc2)cc1C#Cc1cnc2cccnn12 (centres unmarked) [Example 1, N-(3-(imidazo[1,2-b]pyridazin-3-ylethynyl)-4-methylphenyl)-5-phenyl-4,5-dihydro-1H-pyrazole-1-carboxamide 2,2,2-trifluoroacetate] | 0.17 | 
Cc1ccc(NC(=O)N2N=CC[C@H]2c2ccccc2)cc1C#Cc1cnc2cccnn12 [Example 2, (S)—N-(3-(imidazo[1,2-b]pyridazin-3-ylethynyl)-4-methylphenyl)-5-phenyl-4,5-dihydro-1H-pyrazole-1-carboxamide 2,2,2-trifluoroacetate] | 0.06 | 5.1
Cc1ccc(NC(=O)N2N=CC[C@@H]2c2ccccc2)cc1C#Cc1cnc2cccnn12 [Example 3, (R)—N-(3-(imidazo[1,2-b]pyridazin-3-ylethynyl)-4-methylphenyl)-5-phenyl-4,5-dihydro-1H-pyrazole-1-carboxamide 2,2,2-trifluoroacetate] | 314 | 221
Cc1ccc(NC(=O)N2N=CCC2c2cc(F)cc(F)c2)cc1C#Cc1cnc2cccnn12 (centres unmarked) [Example 4, 5-(3,5-difluorophenyl)-N-(3-(imidazo[1,2-b]pyridazin-3-ylethynyl)-4-methylphenyl)-4,5-dihydro-1H-pyrazole-1-carboxamide 2,2,2-trifluoroacetate] | 1.7 | 7.68
Cc1ccc(NC(=O)N2N=CC[C@H]2c2cc(F)cc(F)c2)cc1C#Cc1cnc2cccnn12 [Example 5, (S)-5-(3,5-difluorophenyl)-N-(3-(imidazo[1,2-b]pyridazin-3-ylethynyl)-4-methylphenyl)-4,5-dihydro-1H-pyrazole-1-carboxamide 2,2,2-trifluoroacetate] | 0.4 | 4.56
Cc1ccc(NC(=O)N2N=CC[C@@H]2c2cc(F)cc(F)c2)cc1C#Cc1cnc2cccnn12 [Example 6, (R)-5-(3,5-difluorophenyl)-N-(3-(imidazo[1,2-b]pyridazin-3-ylethynyl)-4-methylphenyl)-4,5-dihydro-1H-pyrazole-1-carboxamide 2,2,2-trifluoroacetate] | 249 | > 1000
Cc1ccc(NC(=O)N2N=CCC2c2ccc(C(F)(F)F)cc2)cc1C#Cc1cnc2cccnn12 (centres unmarked) [Example 7, N-(3-(imidazo[1,2-b]pyridazin-3-ylethynyl)-4-methylphenyl)-5-(4-(trifluoromethyl)phenyl)-4,5-dihydro-1H-pyrazole-1-carboxamide 2,2,2-trifluoroacetate] | 1.9 | 134
Cc1ccc(NC(=O)N2N=CCC2c2cccc(F)c2)cc1C#Cc1cnc2cccnn12 (centres unmarked) [Example 8, 5-(3-fluorophenyl)-N-(3-(imidazo[1,2-b]pyridazin-3-ylethynyl)-4-methylphenyl)-4,5-dihydro-1H-pyrazole-1-carboxamide 2,2,2-trifluoroacetate] | 0.59 | 83.6
Cc1ccc(NC(=O)N2N=CC[C@H]2c2cccc(F)c2)cc1C#Cc1cnc2cccnn12 [Example 9, (S)-5-(3-fluorophenyl)-N-(3-(imidazo[1,2-b]pyridazin-3-ylethynyl)-4-methylphenyl)-4,5-dihydro-1H-pyrazole-1-carboxamide 2,2,2-trifluoroacetate] | 0.41 | 19.5
Cc1ccc(NC(=O)N2N=CC[C@@H]2c2cccc(F)c2)cc1C#Cc1cnc2cccnn12 [Example 10, (R)-5-(3-fluorophenyl)-N-(3-(imidazo[1,2-b]pyridazin-3-ylethynyl)-4-methylphenyl)-4,5-dihydro-1H-pyrazole-1-carboxamide 2,2,2-trifluoroacetate] | 326 | 801
Cc1ccc(NC(=O)N2N=CCC2c2ccc(F)cc2)cc1C#Cc1cnc2cccnn12 (centres unmarked) [Example 11, 5-(4-fluorophenyl)-N-(3-(imidazo[1,2-b]pyridazin-3-ylethynyl)-4-methylphenyl)-4,5-dihydro-1H-pyrazole-1-carboxamide 2,2,2-trifluoroacetate] | 0.35 | 47.4
Cc1ccc(NC(=O)N2N=CC[C@H]2c2ccc(F)cc2)cc1C#Cc1cnc2cccnn12 [Example 12, (S)-5-(4-fluorophenyl)-N-(3-(imidazo[1,2-b]pyridazin-3-ylethynyl)-4-methylphenyl)-4,5-dihydro-1H-pyrazole-1-carboxamide 2,2,2-trifluoroacetate] | 0.2 | 19.1
Cc1ccc(NC(=O)N2N=CC[C@@H]2c2ccc(F)cc2)cc1C#Cc1cnc2cccnn12 [Example 13, (R)-5-(4-fluorophenyl)-N-(3-(imidazo[1,2-b]pyridazin-3-ylethynyl)-4-methylphenyl)-4,5-dihydro-1H-pyrazole-1-carboxamide 2,2,2-trifluoroacetate] | 321 | 503
Cc1ccc(NC(=O)N2N=CCC2c2cccc(Cl)c2)cc1C#Cc1cnc2cccnn12 (centres unmarked) [Example 14, 5-(3-chlorophenyl)-N-(3-(imidazo[1,2-b]pyridazin-3-ylethynyl)-4-methylphenyl)-4,5-dihydro-1H-pyrazole-1-carboxamide 2,2,2-trifluoroacetate] | 0.2 | 5.3
Cc1ccc(NC(=O)N2N=CCC2c2ccc(Cl)cc2)cc1C#Cc1cnc2cccnn12 (centres unmarked) [Example 15, 5-(4-chlorophenyl)-N-(3-(imidazo[1,2-b]pyridazin-3-ylethynyl)-4-methylphenyl)-4,5-dihydro-1H-pyrazole-1-carboxamide 2,2,2-trifluoroacetate] | 0.1 | 4.3
Cc1ccc(NC(=O)N2N=CCC2c2cccnc2)cc1C#Cc1cnc2cccnn12 (centres unmarked) [Example 16, N-(3-(imidazo[1,2-b]pyridazin-3-ylethynyl)-4-methylphenyl)-5-(pyridin-3-yl)-4,5-dihydro-1H-pyrazole-1-carboxamide 2,2,2-trifluoroacetate] | 0.05 | 1.8
Cc1ccc(NC(=O)N2N=CCC2c2ccccn2)cc1C#Cc1cnc2cccnn12 (centres unmarked) [Example 17, N-(3-(imidazo[1,2-b]pyridazin-3-ylethynyl)-4-methylphenyl)-5-(pyridin-2-yl)-4,5-dihydro-1H-pyrazole-1-carboxamide 2,2,2-trifluoroacetate] | 0.2 | 1.8
Cc1ccc(NC(=O)N2N=CCC2c2ccncc2)cc1C#Cc1cnc2cccnn12 (centres unmarked) [Example 18, N-(3-(imidazo[1,2-b]pyridazin-3-ylethynyl)-4-methylphenyl)-5-(pyridin-4-yl)-4,5-dihydro-1H-pyrazole-1-carboxamide 2,2,2-trifluoroacetate] | 0.3 | 2.4
O=C(Nc1cccc(C#Cc2cnc3cccnn23)c1)N1N=CCC1c1ccccc1 (centres unmarked) [Example 19, N-(3-(imidazo[1,2-b]pyridazin-3-ylethynyl)phenyl)-5-phenyl-4,5-dihydro-1H-pyrazole-1-carboxamide 2,2,2-trifluoroacetate] | 0.26 | 3.8
O=C(Nc1cccc(C#Cc2cnc3cccnn23)c1)N1N=CC[C@H]1c1ccccc1 [Example 20, (S)—N-(3-(imidazo[1,2-b]pyridazin-3-ylethynyl)phenyl)-5-phenyl-4,5-dihydro-1H-pyrazole-1-carboxamide hydrochloride] | 0.021 | 0.52
O=C(Nc1cccc(C#Cc2cnc3cccnn23)c1)N1N=CC[C@@H]1c1ccccc1 [Example 21, (R)—N-(3-(imidazo[1,2-b]pyridazin-3-ylethynyl)phenyl)-5-phenyl-4,5-dihydro-1H-pyrazole-1-carboxamide hydrochloride] | 588 | > 1000
